From US20240124520A1, “N-ACYLATED HISTIDINE DIPEPTIDES AS ANTICANCER AGENTS” (THE BOARD OF TRUSTEES OF THE LELAND STANFORD JUNIOR …, priority 2019, published 2024)
Non-standard residues stand in square brackets, D forms with d. Residues, ends and D or L forms follow the SMILES beside them. *: point of attachment. Palmitoyl = CCCCCCCCCCCCCCCC(=O)*

How the values were obtained:
Format in all cases: cell-based
[1] = system: MCF7, estrogen receptor positive, human breast cancer cells; assay: Cell Titer Blue in vitro cell viability assay, MCF7; conditions: 72 h, MCF7 (DMEM), 3 days at 37° C.
Description: (§1) FIG. 8: Dose Response curve for MBC0179 with MCF7 cells. Compound MBC0179 was incubated with MCF7, estrogen receptor positive, human breast cancer cells at the indicated concentrations for 3 days at 37° C. prior to Cell Titer Blue fluorescence-based cell viability assay. Normalized cell viability data, expressed as a percentage, are averaged from three biological replicates and standard error represented by error bars for each averaged data point (empty squares). The compound concentrations are represented on log scale on the x-axis in μM units. Data were analyzed using free software called DrFit, as described in Nature Scientific Reports, Article number: 14701, (2015). […]
(§2) The Cell Titer Blue reagent (available from Promega, Inc.) is a buffered solution containing resazurin, a compound that is converted to resorufin, a detectable fluorescent product, by metabolically active cells. The fluorescence intensity of resorufin product therefore serves as a proportional measure of the number of viable cells, permitting changes in cell viability within cancer or other cell lines to be monitored in response to the addition of cytotoxic or cytostatic agents. […] Metastases to the lungs may be conveniently quantified by a well-established clonogenic assay. […]

[2] = system: A549 human lung cancer cells; assay: Cell Titer Blue in vitro cell viability assay, A549; conditions: 72 h, A549 (DMEM), 3 days at 37° C.
Description: as §1, with “13:” for “8:”, “A549” for “MCF7”, “A549” for “MCF7, estrogen receptor positive,”, “lung” for “breast”
as §2

[3] = system: MDA-MB-231 triple-negative human breast cancer cells; assay: Cell Titer Blue in vitro cell viability assay, MDA-MB-231; conditions: MDA-MB-231, 72 h, 3 days at 37° C.
Description: FIG. 1: Dose Response curve for MBC017 with MDA-MB-231 cells. Compound MBC017 was incubated with MDA-MB-231 triple-negative human breast cancer cells at the indicated concentrations for 3 days at 37° C. prior to Cell Titer Blue fluorescence-based cell viability assay. Normalized cell viability data, expressed as a percentage, are averaged from three biological replicates and standard error represented by error bars for each averaged data point (empty squares). The compound concentrations are represented on log scale on the x-axis in μM units. Data were analyzed using free software called DrFit, as described in Nature Scientific Reports, Article number: 14701, (2015). […] The data were not sufficient to calculate an accurate IC50 value.
A commercially available in vitro cell viability reagent (Cell Titer Blue) was employed to determine the anti-cancer effectiveness of several compounds (1-5) against multiple cancer and healthy tissue-derived cell lines. Cell lines are summarized in Table 2, as follows: All cell lines and information on each cell lines origins and characteristics were procured from ATCC (www.atcc.org). Common names and ATCC product IDs are shown in the first (leftmost) column. From the left, the second and third columns describe the organism and tissue from which each cell line was isolated. The fourth and fifth columns indicate the cell type and disease status (e.g. normal versus carcinoma) of each cell line. The sixth column provides a summary of what compounds were tested against each cell line using an in vitro cell viability assay. Peptide name IDs are shown in parenthesis for each compound, numbered 1 through 5.
The Cell Titer Blue reagent (available from Promega, Inc.) is a buffered solution containing resazurin, a compound that is converted to resorufin, a detectable fluorescent product, by metabolically active cells. The fluorescence intensity of resorufin product therefore serves as a proportional measure of the number of viable cells, permitting changes in cell viability within cancer or other cell lines to be monitored in response to the addition of cytotoxic or cytostatic agents. Various human breast tissue-derived cell lines are widely employed to study the effects of potential therapeutics against breast cancer in vitro. Human breast cancer cell lines may be subdivided into groups based upon hormone receptor status, i.e. estrogen, progesterone and human epidermal growth factor positive or negative. A healthy human breast tissue-derived cell line, hTERT-HME1 may be used to determine the effect of therapeutic agents on healthy human breast tissue in vitro. Additionally, a highly metastatic and aggressive murine (mouse) breast cancer cell line, 4T1, has been extensively used to monitor breast cancer metastasis from the mammary fat pads of mice to the lungs in order to systematically survey the anti-metastatic effectiveness of anti-cancer therapeutics in an in vivo animal model. Metastases to the lungs may be conveniently quantified by a well-established clonogenic assay. Other human tissue-derived model cell lines, representative of various cancers, other than breast cancer, may be utilized to assess the potential of anti-cancer compounds in vitro. These include, K-562 (chronic myelogenous leukemia), HEPG2 (hepatocellular carcinoma), OVCAR-3 (ovarian adenocarcinoma), SK—N—SH (neuroblastoma) and A549 (lung carcinoma). Several compounds were assayed in vitro using the Cell Titer Blue viability assay against an array of cancer cell lines of both human and murine origin plus one healthy human breast cell line (Table 1, FIGS. 1-16). A mouse 4T1 metastasis study was performed to determine the anti-metastatic potential of one compound, MBC0179 (FIG. 17).
Dimethyl sulfoxide (DMSO), Cremophor EL, methylene blue, 100× antibiotic/antimycotic solution, collagenase (Type IV), DNAse I and 6-thioguanine were available from Millipore-Sigma. […]

IC50 [1]: 355 µM
IC50 [2]: 10.5 µM
IC50 ([3]; MDA-MB-231 (DMEM)): 14.7 µM
IC50 ([3]; MDA-MB-231 (MEGM)): 8.88 µM
Structure (SMILES): CCCCCCCCCCCCCCCC(=O)N[C@H](Cc1c[nH]cn1)C(=O)N[C@@H](C(=O)OCC)C(C)C [Compound 5, N-[N-(1-oxohexadecyl)-D-histidyl]-D-valine ethyl ester] (Palmitoyl-[dH]-[dV]-OEt)
